According to PubChem BioAssay AID248 (DTP/NCI, 2004):
Several values for one entry are separate records, joined by “and”; a condition that tells them apart may be missing. Equal values may be shown once. Inconclusive results and toxic doses are left out. Rule as the data show it: active = T/C of 150% or more; inactive = T/C below 125%.

Test system: L1210 leukemia ip in BDF1 mice, survival T/C
Test: NCI In Vivo Anticancer Drug Screen. Data for tumor model L1210 Leukemia (intraperitoneal) in B6D2F1 (BDF1) mice
Conditions: endpoint: mean survival time, higher = longer survival
Procedure, shortened: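 Each compound was tested against a transplantable tumor grown in mice. The endpoint was survival, with treated animals benchmarked against vehicle controls as a simple ratio.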

[1] = dose: 100.0 mg/kg/injection, schedule: Q01DX001 (ip), vehicle: saline
[2] = dose: 200.0 mg/kg/injection, schedule: Q01DX001 (ip), vehicle: saline
[3] = dose: 100.0 mg/kg/injection, schedule: Q04DX003 (ip), vehicle: saline with Tween-80
[4] = dose: 200.0 mg/kg/injection, schedule: Q04DX003 (ip), vehicle: saline with Tween-80
[5] = dose: 100.0 mg/kg/injection, schedule: Q01DX009 (ip), vehicle: Klucel (hydroxypropylcellulose) (HPC)
[6] = dose: 200.0 mg/kg/injection, schedule: Q01DX009 (ip), vehicle: Klucel (hydroxypropylcellulose) (HPC)
[7] = dose: 400.0 mg/kg/injection, schedule: Q01DX001 (ip), vehicle: saline
[8] = dose: 100.0 mg/kg/injection, schedule: Q01DX001 (ip), vehicle: Klucel (hydroxypropylcellulose) (HPC)
[9] = dose: 200.0 mg/kg/injection, schedule: Q01DX001 (ip), vehicle: Klucel (hydroxypropylcellulose) (HPC)

Measured: T/C

Cn1c(=O)n(C)c2ccccc21
inactive: dose: 50.0 mg/kg/injection, schedule: Q01DX009 (ip), vehicle: saline 110 % of control | dose: 100.0 mg/kg/injection, schedule: Q01DX009 (ip), vehicle: saline 106 % of control | dose: 100.0 mg/kg/injection, schedule: Q04DX003 (ip), vehicle: saline 108 % of control | dose: 200.0 mg/kg/injection, schedule: Q04DX003 (ip), vehicle: saline 108 % of control

CN(C)CCCN1CCC2(CCCC(C(F)(F)F)C2)CC1 (stereo unspecified)
inactive: dose: 50.0 mg/kg/injection, schedule: Q01DX001 (ip), vehicle: saline 104 % of control | [1] 101 % of control | [2] 104 % of control

CCOP(=O)(OCC)OCc1ccc(C)cc1
inactive: [3] 94 % of control | [4] 102 % of control | dose: 400.0 mg/kg/injection, schedule: Q04DX003 (ip), vehicle: saline with Tween-80 97 % of control

O=C(O)c1ccccc1S(=O)(=O)c1ccccc1
inactive: dose: 100.0 mg/kg/injection, schedule: Q01DX009 (ip), vehicle: saline with Tween-80 109 % of control | dose: 200.0 mg/kg/injection, schedule: Q01DX009 (ip), vehicle: saline with Tween-80 101 % of control | dose: 400.0 mg/kg/injection, schedule: Q01DX009 (ip), vehicle: saline with Tween-80 103 % of control

CCC(=CCC1=C(O)c2ccccc2C(=O)C1=O)CC
inactive: dose: 25.0 mg/kg/injection, schedule: Q01DX009 (ip), vehicle: water 120 % of control | dose: 50.0 mg/kg/injection, schedule: Q01DX009 (ip), vehicle: water 97 % of control | dose: 100.0 mg/kg/injection, schedule: Q01DX001 (ip), vehicle: water 103 % of control | dose: 100.0 mg/kg/injection, schedule: Q01DX009 (ip), vehicle: water 100 % of control | dose: 200.0 mg/kg/injection, schedule: Q01DX009 (ip), vehicle: water 94 % of control

ClCc1ccc(CCl)cc1
inactive: dose: 56.25 mg/kg/injection, schedule: Q01DX009 (ip), vehicle: Klucel (hydroxypropylcellulose) (HPC) 101 % of control | dose: 112.5 mg/kg/injection, schedule: Q01DX009 (ip), vehicle: Klucel (hydroxypropylcellulose) (HPC) 98 % of control | dose: 150.0 mg/kg/injection, schedule: Q04DX003 (ip), vehicle: Klucel (hydroxypropylcellulose) (HPC) 105 % of control | dose: 225.0 mg/kg/injection, schedule: Q01DX009 (ip), vehicle: Klucel (hydroxypropylcellulose) (HPC) 87 % of control | dose: 225.0 mg/kg/injection, schedule: Q04DX003 (ip), vehicle: Klucel (hydroxypropylcellulose) (HPC) 97 % of control

CCc1[nH]c(=S)ncc1-c1ccc([N+](=O)[O-])cc1O
inactive: dose: 100.0 mg/kg/injection, schedule: Q04DX003 (ip), vehicle: Klucel (hydroxypropylcellulose) (HPC) 93 % of control | dose: 200.0 mg/kg/injection, schedule: Q04DX003 (ip), vehicle: Klucel (hydroxypropylcellulose) (HPC) 93 % of control | dose: 400.0 mg/kg/injection, schedule: Q04DX003 (ip), vehicle: Klucel (hydroxypropylcellulose) (HPC) 106 % of control

CCOC(=O)c1nnc(-c2ccc(C)cc2)[nH]c1=O
inactive: dose: 50.0 mg/kg/injection, schedule: Q01DX009 (ip), vehicle: Klucel (hydroxypropylcellulose) (HPC) 95 % of control | [5] 95 % of control | [6] 106 % of control

CCN(CC)CCNc1nc(N)nc2c1nnn2CC
inactive: dose: 100.0 mg/kg/injection, schedule: Q04DX003 (ip), vehicle: gum acacia 93 % of control | dose: 200.0 mg/kg/injection, schedule: Q04DX003 (ip), vehicle: gum acacia 91 % of control

O=C(Nc1ccccc1F)c1ccc(C(=O)Nc2ccccc2F)cc1
inactive: dose: 12.5 mg/kg/injection, schedule: Q01DX009 (ip), vehicle: saline with Tween-80 92 % of control | dose: 25.0 mg/kg/injection, schedule: Q01DX009 (ip), vehicle: saline with Tween-80 86 % of control | dose: 50.0 mg/kg/injection, schedule: Q01DX009 (ip), vehicle: saline with Tween-80 90 % of control | [3] 90 % of control | [4] 87 % of control

O=C(Nc1ccc(Cl)c(Cl)c1)NC(CO)(CO)CO
inactive: [1] 100 % of control | [2] 94 % of control | [7] 94 % of control

Cc1cc2nc3[nH]c4c(Cl)cc(Cl)cc4c3nc2cc1C
inactive: [1] 91 % of control | [2] 89 % of control | [7] 89 % of control

CCOC(=O)C(=O)c1c2cn(O)nc(OC)c-2nc1[N+](=O)[O-]
inactive: dose: 12.5 mg/kg/injection, schedule: Q04DX002 (ip), vehicle: saline with Tween-80 89 % of control | dose: 25.0 mg/kg/injection, schedule: Q04DX002 (ip), vehicle: saline with Tween-80 96 % of control | dose: 50.0 mg/kg/injection, schedule: Q04DX002 (ip), vehicle: saline with Tween-80 96 % of control

CCCCOB(OCCCC)c1ccc(SC)cc1
inactive: dose: 100.0 mg/kg/injection, schedule: Q04DX003 (ip), vehicle: alcohol 111 % of control | dose: 200.0 mg/kg/injection, schedule: Q04DX003 (ip), vehicle: alcohol 103 % of control | dose: 400.0 mg/kg/injection, schedule: Q04DX003 (ip), vehicle: alcohol 118 % of control

O=C1c2ccccc2C(=O)c2ccccc21
inactive: [5] 102 % of control | [6] 88 % of control | dose: 400.0 mg/kg/injection, schedule: Q01DX009 (ip), vehicle: Klucel (hydroxypropylcellulose) (HPC) 100 % of control

Cc1cc(NC(=O)CCc2ccc(N3C(N)=NC(N)=NC3(C)C)cc2)ccc1S(=O)(=O)F
inactive: dose: 4.0 mg/kg/injection, schedule: Q03HX024 (ip), vehicle: other 104 % of control | dose: 7.82 mg/kg/injection, schedule: Q12HX018 (ip), vehicle: acetone 106 % of control | dose: 8.0 mg/kg/injection, schedule: Q03HX008 (ip), vehicle: other 117 % of control | dose: 8.0 mg/kg/injection, schedule: Q03HX024 (ip), vehicle: other 114 % of control | dose: 15.62 mg/kg/injection, schedule: Q12HX018 (ip), vehicle: acetone 105 % of control | dose: 16.0 mg/kg/injection, schedule: Q01DX009 (ip), vehicle: other 112 % of control | dose: 16.0 mg/kg/injection, schedule: Q03HX008 (ip), vehicle: other 104 % of control | dose: 16.0 mg/kg/injection, schedule: Q03HX024 (ip), vehicle: other 114 % of control | dose: 18.0 mg/kg/injection, schedule: Q## X018 (ip), vehicle: saline 118 % of control | dose: 25.0 mg/kg/injection, schedule: Q01DX001 (ip), vehicle: Klucel (hydroxypropylcellulose) (HPC) 103 % of control | dose: 31.25 mg/kg/injection, schedule: Q12HX018 (ip), vehicle: acetone 113 % of control | dose: 32.0 mg/kg/injection, schedule: Q01DX009 (ip), vehicle: other 120 % of control | dose: 32.0 mg/kg/injection, schedule: Q03HX008 (ip), vehicle: other 109 % of control | dose: 32.0 mg/kg/injection, schedule: Q03HX024 (ip), vehicle: other 117 % of control | dose: 32.0 mg/kg/injection, schedule: Q04DX003 (ip), vehicle: other 109 % of control | dose: 50.0 mg/kg/injection, schedule: Q01DX001 (ip), vehicle: Klucel (hydroxypropylcellulose) (HPC) 105 % of control | dose: 64.0 mg/kg/injection, schedule: Q01DX001 (ip), vehicle: other 95 % of control | dose: 64.0 mg/kg/injection, schedule: Q01DX009 (ip), vehicle: other 117 % of control | dose: 64.0 mg/kg/injection, schedule: Q03HX008 (ip), vehicle: other 111 % of control | dose: 64.0 mg/kg/injection, schedule: Q04DX003 (ip), vehicle: other 104 % of control | [8] 101 % of control and 92 % of control | [9] 92 % of control | dose: 400.0 mg/kg/injection, schedule: Q01DX001 (ip), vehicle: Klucel (hydroxypropylcellulose) (HPC) 92 % of control

O=C(OCc1ccccc1CN1CCCC1)c1cccc(Br)c1
inactive: [8] 95 % of control | [9] 98 % of control
